This is an account of results in patent US20260108527A1, “POLO LIKE KINASE 4 INHIBITORS” (ORIC Pharmaceuticals, Inc., priority 2022, published 2026).

For one experiment, the target named is T1, human recombinant PLK4 (Homo sapiens, UniProt O00444).
T1 construct: purchased ThermoFisher PV6396
T1 sequence (O00444 1-970): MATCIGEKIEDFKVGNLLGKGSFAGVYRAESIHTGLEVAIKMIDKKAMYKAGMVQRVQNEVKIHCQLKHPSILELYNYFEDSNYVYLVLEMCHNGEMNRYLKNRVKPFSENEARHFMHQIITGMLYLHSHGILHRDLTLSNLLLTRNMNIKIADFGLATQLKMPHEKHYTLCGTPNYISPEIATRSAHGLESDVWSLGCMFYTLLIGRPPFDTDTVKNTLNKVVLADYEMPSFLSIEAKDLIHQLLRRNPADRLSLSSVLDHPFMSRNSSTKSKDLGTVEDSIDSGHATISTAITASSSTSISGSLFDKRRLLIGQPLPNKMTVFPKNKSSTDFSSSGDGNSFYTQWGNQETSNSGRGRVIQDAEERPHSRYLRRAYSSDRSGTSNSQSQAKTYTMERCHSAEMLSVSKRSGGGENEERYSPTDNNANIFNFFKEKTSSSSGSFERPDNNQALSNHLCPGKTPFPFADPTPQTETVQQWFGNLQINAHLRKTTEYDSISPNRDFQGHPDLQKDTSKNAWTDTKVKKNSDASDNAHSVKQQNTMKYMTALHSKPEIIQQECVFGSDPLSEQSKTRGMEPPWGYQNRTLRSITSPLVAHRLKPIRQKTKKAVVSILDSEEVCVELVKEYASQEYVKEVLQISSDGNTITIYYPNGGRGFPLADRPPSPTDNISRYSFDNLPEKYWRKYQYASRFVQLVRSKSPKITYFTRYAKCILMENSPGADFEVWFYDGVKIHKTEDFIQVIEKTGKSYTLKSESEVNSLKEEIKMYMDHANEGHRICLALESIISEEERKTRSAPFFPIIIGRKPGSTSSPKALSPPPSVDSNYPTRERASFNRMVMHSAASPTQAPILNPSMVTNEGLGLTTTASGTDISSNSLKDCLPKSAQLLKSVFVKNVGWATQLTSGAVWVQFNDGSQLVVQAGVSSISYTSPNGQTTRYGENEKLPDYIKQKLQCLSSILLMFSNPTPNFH
The experiment can be described thus: PLK4 Biochemical Assay (ADP-Glo). The following applies: 0.5 nM PLK4, 8.0 μM ATP, 4.7 μM MBP, 6 hours at RT. The method in brief: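 PLK4 at 1.0 nM in HEPES pH 7.5 buffer with 10 mM MgCl2, 1 mM EGTA, 1 mM DTT, preincubated 15 min at RT with compound. ADP formed quantified by ADP-Glo luminescence after ATP depletion. IC50 from four-parameter non-linear regression.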

Experiment [1] has as its target T2, human recombinant Aurora B (Homo sapiens, UniProt Q96GD4).
T2 construct: purchased ThermoFisher PR9210B
The experiment can be described thus: Aurora B Kinase Biochemical Assay (ADP-Glo). Particulars: selectivity ratio; Aurora B 10 nM, 114 μM ATP. The method in brief: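 Aurora B (10 nM) was pre-incubated with compound for 15 min, then reacted with 114 μM ATP and 4.7 μM MBP for 2 h at RT in 50 mM HEPES pH 7.5, 10 mM MgCl2, 1 mM DTT. ADP was read by ADP-Glo luminescence, and IC50 values came from four-parameter fits of 11-point, 3-fold titrations in duplicate.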

The structures appear in SMILES notation.

T2 sequence (Q96GD4 whole entry): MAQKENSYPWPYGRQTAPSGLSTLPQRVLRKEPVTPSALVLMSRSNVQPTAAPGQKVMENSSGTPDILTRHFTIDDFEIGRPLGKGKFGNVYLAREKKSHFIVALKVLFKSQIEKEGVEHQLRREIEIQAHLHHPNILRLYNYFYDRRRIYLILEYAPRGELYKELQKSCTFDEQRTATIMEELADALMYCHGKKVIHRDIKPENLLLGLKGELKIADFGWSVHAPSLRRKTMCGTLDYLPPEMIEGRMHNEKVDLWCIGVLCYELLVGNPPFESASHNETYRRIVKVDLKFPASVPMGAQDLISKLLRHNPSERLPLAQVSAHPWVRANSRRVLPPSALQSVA

One may read the IC50 as the concentration that inhibits the measured activity by half. Regarding `CCOc1cc(-c2cnccn2)ccc1Nc1n[nH]c2cc([C@@H]3C[C@@]34C(=O)Nc3ccc(OC)cc34)ccc12` [Example 7, (1R,2S)-2-{3-[2-ethoxy-4-(pyrazin-2-yl)anilino]-1H-indazol-6-yl}-5′-methoxyspiro[cyclopropane-1,3′-indol]-2′(1′H)-one], at human recombinant PLK4, the IC50 was 1700 pM. Also, in experiment [1], the “[Aurora B IC50 (nM)]/[PLK4 IC50 (nM)]” value is reported as 702.6392.
In the case of `COc1ccc2c(c1)[C@]1(C[C@H]1c1ccc3c(Nc4cc(-c5ccsn5)ccc4OC)n[nH]c3c1)C(=O)N2` [Example 30, (1R,2S)-5′-methoxy-2-{3-[2-methoxy-5-(1,2-thiazol-3-yl)anilino]-1H-indazol-6-yl}spiro[cyclopropane-1,3′-indol]-2′(1′H)-one], the IC50 on human recombinant PLK4 stood at 694 pM. Also, the “[Aurora B IC50 (nM)]/[PLK4 IC50 (nM)]” value in experiment [1] was determined as 1970.3298.
For the molecule `CCOc1cc(-n2cncn2)ccc1Nc1n[nH]c2cc([C@@H]3C[C@@]34C(=O)Nc3ccc(OC)cc34)ccc12` [Example 10, (1R,2S)-2-{3-[2-ethoxy-4-(1H-1,2,4-triazol-1-yl)anilino]-1H-indazol-6-yl}-5′-methoxyspiro[cyclopropane-1,3′-indol]-2′(1′H)-one], the half-inhibitory concentration (IC50) on human recombinant PLK4 came out at 557 pM. Further, the “[Aurora B IC50 (nM)]/[PLK4 IC50 (nM)]” value in experiment [1] is 396.7684.
In the case of `CCOc1cc(-n2cncn2)cnc1Nc1n[nH]c2cc([C@@H]3C[C@@]34C(=O)Nc3ccc(OC)cc34)ccc12` [Example 38, (1R,2S)-2-(3-{[3-ethoxy-5-(1H-1,2,4-triazol-1-yl)pyridin-2-yl]amino}-1H-indazol-6-yl)-5′-methoxyspiro[cyclopropane-1,3′-indol]-2′(1′H)-one], the IC50 at human recombinant PLK4 came to 817 pM. In addition, in experiment [1], the “[Aurora B IC50 (nM)]/[PLK4 IC50 (nM)]” value turned out to be 559.1.
On to `COc1ccc2c(c1)[C@]1(C[C@H]1c1ccc3c(Nc4ccc(S(C)(=O)=O)cc4OC)n[nH]c3c1)C(=O)N2` [Example 2, (1R,2S)-2-{3-[4-(methanesulfonyl)-2-methoxyanilino]-1H-indazol-6-yl}-5′-methoxyspiro[cyclopropane-1,3′-indol]-2′(1′H)-one], for which, at human recombinant PLK4, the IC50 came to 576 pM. The “[Aurora B IC50 (nM)]/[PLK4 IC50 (nM)]” value in experiment [1] was 229.2462.
For `CCOc1cnc(-c2nccs2)nc1Nc1n[nH]c2cc([C@@H]3C[C@@]34C(=O)Nc3ccc(OC)cc34)ccc12` [Example 44, (1R,2S)-2-(3-{[5-ethoxy-2-(1,3-thiazol-2-yl)pyrimidin-4-yl]amino}-1H-indazol-6-yl)-5′-methoxyspiro[cyclopropane-1,3′-indol]-2′(1′H)-one], the IC50 on human recombinant PLK4 was found to be 160 pM. Also, the “[Aurora B IC50 (nM)]/[PLK4 IC50 (nM)]” value in experiment [1] is on record as 844.375.
Turning to `CCOc1cc(S(C)(=O)=O)ccc1Nc1n[nH]c2cc([C@@H]3C[C@@]34C(=O)N(C)c3ccc(OC)cc34)ccc12` [Example 23, (1R,2S)-2-{3-[2-ethoxy-4-(methanesulfonyl)anilino]-1H-indazol-6-yl}-5′-methoxy-1′-methylspiro[cyclopropane-1,3′-indol]-2′(1′H)-one], the IC50 on human recombinant PLK4 stood at 1400 pM. Also, the “[Aurora B IC50 (nM)]/[PLK4 IC50 (nM)]” value in experiment [1] came to 1017.
As for `COc1ccc2c(c1)[C@]1(C[C@H]1c1ccc3c(Nc4cc(-c5cocn5)cnc4OC)n[nH]c3c1)C(=O)N2` [Example 42, (1R,2S)-5′-methoxy-2-(3-{[2-methoxy-5-(1,3-oxazol-4-yl)pyridin-3-yl]amino}-1H-indazol-6-yl)spiro[cyclopropane-1,3′-indol]-2′(1′H)-one], the concentration for half-maximal inhibition (IC50) at human recombinant PLK4 was 1310 pM. For the same molecule, in experiment [1], the “[Aurora B IC50 (nM)]/[PLK4 IC50 (nM)]” value is 465.6990.
As for `COc1ccc2c(c1)[C@]1(C[C@H]1c1ccc3c(Nc4cc(-c5nnn(C)n5)ccc4OC)n[nH]c3c1)C(=O)N2` [Example 21, (1R,2S)-5′-methoxy-2-{3-[2-methoxy-5-(2-methyl-2H-tetrazol-5-yl)anilino]-1H-indazol-6-yl}spiro[cyclopropane-1,3′-indol]-2′(1′H)-one], the IC50 on human recombinant PLK4 is 2600 pM. Moreover, in experiment [1], the “[Aurora B IC50 (nM)]/[PLK4 IC50 (nM)]” value was found to be 990.
On to `COc1ccc2c(c1)[C@]1(C[C@H]1c1ccc3c(Nc4nc(-c5ncco5)ccc4OC)n[nH]c3c1)C(=O)N2` [Example 4, (1R,2S)-5′-methoxy-2-(3-{[3-methoxy-6-(1,3-oxazol-2-yl)pyridin-2-yl]amino}-1H-indazol-6-yl)spiro[cyclopropane-1,3′-indol]-2′(1′H)-one], for which, on human recombinant PLK4, the concentration for half-maximal inhibition (IC50) is 682 pM. Moreover, the “[Aurora B IC50 (nM)]/[PLK4 IC50 (nM)]” value in experiment [1] was determined as 549.2668.
For `COc1ccc2c(c1)[C@]1(C[C@H]1c1ccc3c(Nc4cc(-c5cnn(C)c5)ncc4OC)n[nH]c3c1)C(=O)N2` [Example 27, (1R,2S)-5′-methoxy-2-(3-{[5-methoxy-2-(1-methyl-1H-pyrazol-4-yl)pyridin-4-yl]amino}-1H-indazol-6-yl)spiro[cyclopropane-1,3′-indol]-2′(1′H)-one] the same measures were 1060 pM and 954.5884.
